Experiments:
Histamine H3 receptor = Histamine H3 receptor (Homo sapiens, UniProt Q9Y5N1)
Thromboxane A2 receptor [1] = molecular target: T1, Thromboxane A2 receptor (Homo sapiens, UniProt P21731); format: functional, cell-based
T1 sequence (P21731 whole entry): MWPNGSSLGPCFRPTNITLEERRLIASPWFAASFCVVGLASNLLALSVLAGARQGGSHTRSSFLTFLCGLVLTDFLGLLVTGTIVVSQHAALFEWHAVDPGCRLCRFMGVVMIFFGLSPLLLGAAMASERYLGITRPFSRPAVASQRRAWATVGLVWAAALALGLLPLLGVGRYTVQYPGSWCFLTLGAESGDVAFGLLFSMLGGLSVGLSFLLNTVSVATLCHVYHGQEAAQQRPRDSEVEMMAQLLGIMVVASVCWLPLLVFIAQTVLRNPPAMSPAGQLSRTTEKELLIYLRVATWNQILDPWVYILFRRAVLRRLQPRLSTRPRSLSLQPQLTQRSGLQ

[2] = molecular target: Sodium-dependent noradrenaline transporter (Homo sapiens, UniProt P23975)
Prothrombin = Prothrombin (Homo sapiens, UniProt P00734); format: functional
[3] = molecular target: T2, Amine oxidase [flavin-containing] A (Homo sapiens, UniProt P21397); format: functional
T2 sequence (P21397 whole entry): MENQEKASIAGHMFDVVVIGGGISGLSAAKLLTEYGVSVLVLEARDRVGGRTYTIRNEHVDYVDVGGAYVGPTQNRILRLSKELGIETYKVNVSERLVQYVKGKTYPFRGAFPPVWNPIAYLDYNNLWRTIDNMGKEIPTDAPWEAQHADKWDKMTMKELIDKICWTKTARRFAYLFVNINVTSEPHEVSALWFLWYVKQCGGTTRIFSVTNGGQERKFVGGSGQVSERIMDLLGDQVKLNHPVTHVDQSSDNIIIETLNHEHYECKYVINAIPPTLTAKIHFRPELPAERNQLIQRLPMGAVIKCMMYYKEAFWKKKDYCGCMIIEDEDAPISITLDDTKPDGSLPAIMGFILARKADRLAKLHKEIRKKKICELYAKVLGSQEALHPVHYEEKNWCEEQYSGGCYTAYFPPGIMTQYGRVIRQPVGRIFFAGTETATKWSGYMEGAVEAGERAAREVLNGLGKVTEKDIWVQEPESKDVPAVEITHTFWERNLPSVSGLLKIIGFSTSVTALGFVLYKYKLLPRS

Acetylcholinesterase = Acetylcholinesterase (Homo sapiens, UniProt P22303); format: functional
[4] = molecular target: T3, Prostaglandin G/H synthase 1 (Homo sapiens, UniProt P23219); format: functional
[5] = molecular target: Sodium-dependent dopamine transporter (Homo sapiens, UniProt Q01959)
[6] = molecular target: cGMP-inhibited 3',5'-cyclic phosphodiesterase 3A (Homo sapiens, UniProt Q14432); format: functional
D(3) dopamine receptor = D(3) dopamine receptor (Homo sapiens, UniProt P35462)
[7] = molecular target: 5-hydroxytryptamine receptor 2B (Homo sapiens, UniProt P41595); format: functional, cell-based
Thromboxane A2 receptor [8] = molecular target: T1, Thromboxane A2 receptor; format: functional, cell-based; remark: listed apart in the source
Mu-type opioid receptor = Mu-type opioid receptor (Homo sapiens, UniProt P35372)
D(1A) dopamine receptor = D(1A) dopamine receptor (Homo sapiens, UniProt P21728)
[9] = molecular target: 3',5'-cyclic-AMP phosphodiesterase 4A (Homo sapiens, UniProt P27815); format: functional
[10] = molecular target: T4, Muscarinic acetylcholine receptor M2 (Homo sapiens, UniProt P08172)
T4 sequence (P08172 whole entry): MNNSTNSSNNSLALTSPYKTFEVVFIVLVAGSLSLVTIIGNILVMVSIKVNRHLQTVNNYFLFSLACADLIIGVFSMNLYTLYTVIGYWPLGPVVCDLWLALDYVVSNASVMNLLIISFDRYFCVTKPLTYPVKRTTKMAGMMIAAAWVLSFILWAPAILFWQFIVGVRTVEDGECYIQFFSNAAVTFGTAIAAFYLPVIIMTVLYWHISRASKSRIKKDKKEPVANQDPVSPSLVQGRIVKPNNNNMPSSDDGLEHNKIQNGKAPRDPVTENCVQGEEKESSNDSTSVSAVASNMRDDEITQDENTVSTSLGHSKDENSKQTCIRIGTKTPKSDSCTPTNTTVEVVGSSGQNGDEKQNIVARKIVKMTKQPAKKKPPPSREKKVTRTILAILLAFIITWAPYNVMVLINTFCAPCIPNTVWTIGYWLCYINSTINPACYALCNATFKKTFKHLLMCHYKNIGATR

[11] = molecular target: Voltage-gated inwardly rectifying potassium channel KCNH2 (Homo sapiens, UniProt Q12809); format: functional; conditions: read-out: AC50
[12] = molecular target: T5, 5-hydroxytryptamine receptor 1A (Homo sapiens, UniProt P08908)
T5 sequence (P08908 whole entry): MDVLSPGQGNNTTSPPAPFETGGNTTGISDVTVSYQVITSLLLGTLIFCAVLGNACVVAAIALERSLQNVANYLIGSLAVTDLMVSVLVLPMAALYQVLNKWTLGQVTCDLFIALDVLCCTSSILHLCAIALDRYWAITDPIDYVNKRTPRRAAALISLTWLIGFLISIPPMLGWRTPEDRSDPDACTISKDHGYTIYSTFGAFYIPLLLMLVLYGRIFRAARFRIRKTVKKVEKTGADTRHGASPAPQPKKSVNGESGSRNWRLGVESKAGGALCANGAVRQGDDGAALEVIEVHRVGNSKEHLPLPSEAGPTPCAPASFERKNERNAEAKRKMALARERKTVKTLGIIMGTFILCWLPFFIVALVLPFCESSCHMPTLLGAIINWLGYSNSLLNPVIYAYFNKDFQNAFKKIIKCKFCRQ

[13] = molecular target: T3, Prostaglandin G/H synthase 1; format: functional; remark: listed apart in the source
Note: assay procedure not described here.

Chain of 5-hydroxytryptamine receptor 2B (P41595 whole entry): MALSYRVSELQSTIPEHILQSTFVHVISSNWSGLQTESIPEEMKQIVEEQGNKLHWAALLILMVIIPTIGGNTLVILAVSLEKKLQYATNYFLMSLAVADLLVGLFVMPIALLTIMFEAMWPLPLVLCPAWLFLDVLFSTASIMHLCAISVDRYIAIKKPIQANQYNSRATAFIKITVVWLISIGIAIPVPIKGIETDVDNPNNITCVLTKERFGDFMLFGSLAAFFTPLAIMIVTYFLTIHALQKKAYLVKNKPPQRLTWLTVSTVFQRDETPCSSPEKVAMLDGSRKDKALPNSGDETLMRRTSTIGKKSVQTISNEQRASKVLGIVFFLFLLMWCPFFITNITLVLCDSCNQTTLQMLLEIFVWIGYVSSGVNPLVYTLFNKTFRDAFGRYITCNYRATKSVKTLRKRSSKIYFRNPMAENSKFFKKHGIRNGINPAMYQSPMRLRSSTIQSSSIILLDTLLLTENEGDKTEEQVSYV
Chain of Sodium-dependent dopamine transporter (Q01959 whole entry): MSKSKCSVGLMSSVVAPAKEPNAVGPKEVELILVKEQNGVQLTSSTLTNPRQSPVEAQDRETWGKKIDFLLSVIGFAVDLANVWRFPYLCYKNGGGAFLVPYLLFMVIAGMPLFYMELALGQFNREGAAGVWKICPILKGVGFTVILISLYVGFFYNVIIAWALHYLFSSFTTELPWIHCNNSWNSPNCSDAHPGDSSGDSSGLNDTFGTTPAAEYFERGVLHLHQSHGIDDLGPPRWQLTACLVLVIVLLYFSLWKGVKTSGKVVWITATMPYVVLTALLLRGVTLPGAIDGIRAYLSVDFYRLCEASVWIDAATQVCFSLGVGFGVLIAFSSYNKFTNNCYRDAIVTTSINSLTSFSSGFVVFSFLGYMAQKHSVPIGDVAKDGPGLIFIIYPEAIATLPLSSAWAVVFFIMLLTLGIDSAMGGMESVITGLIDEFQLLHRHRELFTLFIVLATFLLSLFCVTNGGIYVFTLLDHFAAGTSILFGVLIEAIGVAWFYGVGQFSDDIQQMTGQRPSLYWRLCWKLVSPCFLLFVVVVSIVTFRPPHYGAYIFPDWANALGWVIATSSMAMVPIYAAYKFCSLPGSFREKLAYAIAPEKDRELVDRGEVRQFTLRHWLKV
T3 sequence (P23219 whole entry): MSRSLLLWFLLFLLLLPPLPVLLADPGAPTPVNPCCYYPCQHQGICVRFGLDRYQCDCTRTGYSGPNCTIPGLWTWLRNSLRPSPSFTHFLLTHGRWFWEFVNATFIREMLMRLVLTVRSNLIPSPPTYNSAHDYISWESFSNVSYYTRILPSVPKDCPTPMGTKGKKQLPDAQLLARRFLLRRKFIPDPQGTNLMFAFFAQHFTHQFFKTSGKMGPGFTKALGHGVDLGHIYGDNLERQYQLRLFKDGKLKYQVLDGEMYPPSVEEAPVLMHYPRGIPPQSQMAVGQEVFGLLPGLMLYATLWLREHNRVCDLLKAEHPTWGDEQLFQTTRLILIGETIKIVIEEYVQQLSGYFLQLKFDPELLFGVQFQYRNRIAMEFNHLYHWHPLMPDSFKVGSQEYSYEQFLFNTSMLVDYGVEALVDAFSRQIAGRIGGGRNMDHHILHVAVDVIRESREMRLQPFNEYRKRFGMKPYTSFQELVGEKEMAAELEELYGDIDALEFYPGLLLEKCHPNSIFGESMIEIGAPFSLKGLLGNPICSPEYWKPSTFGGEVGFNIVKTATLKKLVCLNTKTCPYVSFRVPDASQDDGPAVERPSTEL
Chain of D(1A) dopamine receptor (P21728 whole entry): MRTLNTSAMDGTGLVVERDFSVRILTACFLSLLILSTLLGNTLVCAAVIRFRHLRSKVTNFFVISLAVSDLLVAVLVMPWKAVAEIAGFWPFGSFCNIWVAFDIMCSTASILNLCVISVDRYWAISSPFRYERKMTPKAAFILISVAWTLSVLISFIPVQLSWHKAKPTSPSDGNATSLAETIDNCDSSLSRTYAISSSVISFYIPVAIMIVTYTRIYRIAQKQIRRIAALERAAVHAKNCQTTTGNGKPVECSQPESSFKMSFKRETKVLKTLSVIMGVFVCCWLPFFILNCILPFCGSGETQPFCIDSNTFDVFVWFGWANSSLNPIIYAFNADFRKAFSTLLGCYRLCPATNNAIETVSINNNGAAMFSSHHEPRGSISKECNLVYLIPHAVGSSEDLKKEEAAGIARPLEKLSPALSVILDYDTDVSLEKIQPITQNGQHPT
Chain of D(3) dopamine receptor (P35462 whole entry): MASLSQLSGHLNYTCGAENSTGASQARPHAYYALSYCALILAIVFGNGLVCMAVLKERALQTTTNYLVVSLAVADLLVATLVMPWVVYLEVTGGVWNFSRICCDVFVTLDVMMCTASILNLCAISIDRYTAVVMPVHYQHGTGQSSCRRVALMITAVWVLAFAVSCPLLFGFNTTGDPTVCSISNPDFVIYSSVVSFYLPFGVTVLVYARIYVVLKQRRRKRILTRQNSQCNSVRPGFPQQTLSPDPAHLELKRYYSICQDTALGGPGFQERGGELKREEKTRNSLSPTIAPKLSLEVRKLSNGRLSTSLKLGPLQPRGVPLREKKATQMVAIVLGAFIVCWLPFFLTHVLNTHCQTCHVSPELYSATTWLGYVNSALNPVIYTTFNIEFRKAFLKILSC
Chain of Acetylcholinesterase (P22303 whole entry): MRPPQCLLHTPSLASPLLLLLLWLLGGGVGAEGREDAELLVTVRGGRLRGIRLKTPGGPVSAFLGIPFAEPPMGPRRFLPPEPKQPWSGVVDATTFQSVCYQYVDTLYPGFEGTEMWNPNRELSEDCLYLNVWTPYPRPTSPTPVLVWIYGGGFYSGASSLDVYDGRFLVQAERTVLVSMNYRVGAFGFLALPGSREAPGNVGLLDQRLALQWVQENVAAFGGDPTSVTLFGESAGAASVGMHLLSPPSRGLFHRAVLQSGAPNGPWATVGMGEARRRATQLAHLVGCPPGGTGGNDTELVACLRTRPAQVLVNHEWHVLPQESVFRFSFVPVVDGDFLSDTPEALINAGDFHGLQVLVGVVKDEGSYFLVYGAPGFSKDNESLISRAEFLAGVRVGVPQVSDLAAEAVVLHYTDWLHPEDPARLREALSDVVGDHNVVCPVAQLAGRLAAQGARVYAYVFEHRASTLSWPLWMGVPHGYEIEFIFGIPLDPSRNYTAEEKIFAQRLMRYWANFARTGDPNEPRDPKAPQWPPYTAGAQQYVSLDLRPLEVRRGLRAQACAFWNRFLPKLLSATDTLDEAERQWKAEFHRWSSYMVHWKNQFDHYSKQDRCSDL
Chain of Mu-type opioid receptor (P35372 whole entry): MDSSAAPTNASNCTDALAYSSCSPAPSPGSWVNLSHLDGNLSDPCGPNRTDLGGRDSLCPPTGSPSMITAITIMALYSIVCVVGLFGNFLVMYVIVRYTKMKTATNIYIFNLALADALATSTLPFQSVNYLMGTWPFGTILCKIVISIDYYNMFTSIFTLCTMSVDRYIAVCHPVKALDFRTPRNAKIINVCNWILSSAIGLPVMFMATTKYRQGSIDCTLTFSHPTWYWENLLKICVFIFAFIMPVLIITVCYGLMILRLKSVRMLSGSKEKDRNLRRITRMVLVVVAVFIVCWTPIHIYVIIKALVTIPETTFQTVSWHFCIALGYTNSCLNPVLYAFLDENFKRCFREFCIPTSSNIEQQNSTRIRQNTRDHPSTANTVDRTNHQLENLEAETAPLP
Chain of Histamine H3 receptor (Q9Y5N1 whole entry): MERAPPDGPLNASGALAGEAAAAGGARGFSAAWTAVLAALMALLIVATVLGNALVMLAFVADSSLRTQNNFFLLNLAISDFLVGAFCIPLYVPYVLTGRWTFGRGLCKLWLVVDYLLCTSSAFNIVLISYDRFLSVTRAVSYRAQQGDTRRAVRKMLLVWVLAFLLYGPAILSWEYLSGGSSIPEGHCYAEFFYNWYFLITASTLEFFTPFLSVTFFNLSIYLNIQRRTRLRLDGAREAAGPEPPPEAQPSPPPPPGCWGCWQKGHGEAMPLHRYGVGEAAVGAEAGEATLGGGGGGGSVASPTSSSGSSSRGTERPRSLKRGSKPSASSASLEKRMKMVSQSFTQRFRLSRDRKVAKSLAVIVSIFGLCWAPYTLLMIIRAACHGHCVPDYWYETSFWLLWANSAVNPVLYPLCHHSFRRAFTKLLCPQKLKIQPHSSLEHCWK
Chain of Sodium-dependent noradrenaline transporter (P23975 whole entry): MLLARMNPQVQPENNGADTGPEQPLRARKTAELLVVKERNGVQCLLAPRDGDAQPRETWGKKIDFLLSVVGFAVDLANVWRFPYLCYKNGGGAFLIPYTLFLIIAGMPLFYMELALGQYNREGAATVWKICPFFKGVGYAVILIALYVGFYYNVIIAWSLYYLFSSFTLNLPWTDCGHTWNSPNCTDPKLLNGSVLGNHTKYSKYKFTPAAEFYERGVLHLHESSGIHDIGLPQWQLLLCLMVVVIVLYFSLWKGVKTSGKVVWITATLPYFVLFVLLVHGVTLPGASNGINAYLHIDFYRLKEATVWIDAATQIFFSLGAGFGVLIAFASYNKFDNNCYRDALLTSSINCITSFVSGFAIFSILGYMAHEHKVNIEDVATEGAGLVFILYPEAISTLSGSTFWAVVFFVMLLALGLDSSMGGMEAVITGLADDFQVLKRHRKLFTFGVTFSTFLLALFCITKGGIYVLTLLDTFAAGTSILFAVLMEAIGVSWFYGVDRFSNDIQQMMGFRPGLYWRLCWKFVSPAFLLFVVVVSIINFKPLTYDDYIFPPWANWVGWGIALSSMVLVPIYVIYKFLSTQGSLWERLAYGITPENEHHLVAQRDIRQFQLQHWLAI

| SMILES | AC50 (Histamine H3 receptor) | AC50 (Thromboxane A2 receptor [1]) | AC50 [2] | AC50 (Prothrombin) | AC50 [3] | AC50 (Acetylcholinesterase) | AC50 [4] | AC50 [5] | AC50 [6] | AC50 (D(3) dopamine receptor) | AC50 [7] | AC50 (Thromboxane A2 receptor [8]) | AC50 (Mu-type opioid receptor) | AC50 (D(1A) dopamine receptor) | AC50 [9] | AC50 [10] | AC50 [11] | AC50 [12] | AC50 [13] |
| --- | --- | --- | --- | --- | --- | --- | --- | --- | --- | --- | --- | --- | --- | --- | --- | --- | --- | --- | --- |
| C=C1c2c(Cl)ccc(O)c2C(=O)C2=C(O)[C@]3(O)C(=O)C(C(N)=O)=C(O)[C@@H](N(C)C)[C@@H]3[C@@H](O)[C@H]12 [MECLOCYCLINE] | > 30 µM | > 30 µM | > 30 µM | > 30 µM | > 30 µM | > 30 µM | > 30 µM | > 30 µM | > 30 µM | > 30 µM | > 30 µM | > 30 µM | > 30 µM | > 30 µM | > 30 µM | > 30 µM | > 30 µM | > 30 µM | > 30 µM |
| NC(=O)c1nc(F)c[nH]c1=O | > 30 µM | > 30 µM | > 30 µM | > 10 µM | > 30 µM | > 30 µM | > 30 µM | > 30 µM | > 30 µM | > 30 µM | > 30 µM | > 30 µM | > 30 µM | > 30 µM | > 30 µM | > 30 µM | > 30 µM | > 30 µM | > 30 µM |
| CC1(C)O[C@@H]2[C@@H](CO[C@@]3(COS(N)(=O)=O)OC(C)(C)O[C@@H]23)O1 [TOPIRAMATE] | > 30 µM | > 30 µM | > 30 µM | > 30 µM | > 30 µM | > 30 µM | > 30 µM | > 30 µM | > 30 µM | > 30 µM | > 30 µM | > 30 µM | > 30 µM | > 30 µM | > 30 µM | > 30 µM | > 30 µM | > 30 µM | > 30 µM |
| N=C(N)NCc1cccc([123I])c1 [IOBENGUANE I 123] | > 30 µM | > 30 µM | 8.75 µM | > 30 µM | 26.4 µM | > 30 µM | > 30 µM | 6.39 µM | > 30 µM | 8.17 µM | > 30 µM | > 30 µM | 22 µM | 13.4 µM | > 30 µM | > 30 µM | > 30 µM | 2.49 µM | > 30 µM |
| O=C(O)COc1nn(Cc2ccccc2)c2ccccc12 [BENDAZAC] | > 30 µM | > 3 µM | > 30 µM | > 30 µM | > 30 µM | > 30 µM | > 30 µM | > 30 µM | > 30 µM | > 30 µM | > 30 µM | > 30 µM | > 30 µM | > 30 µM | > 30 µM | > 30 µM | > 30 µM | > 30 µM | > 30 µM |
| Cn1c(=O)c2c(ncn2CC(O)CO)n(C)c1=O (centres undefined) [DYPHYLLINE] | > 30 µM | > 30 µM | > 30 µM | > 30 µM | > 30 µM | > 30 µM | > 30 µM | > 30 µM | > 30 µM | > 30 µM | > 30 µM | > 30 µM | > 30 µM | > 30 µM | > 30 µM | > 30 µM | > 30 µM | > 30 µM | > 30 µM |
| NC(=O)NS(=O)(=O)c1ccc(N)cc1 [SULFACARBAMIDE] | > 30 µM | > 30 µM | > 30 µM | > 30 µM | > 30 µM | > 30 µM | > 30 µM | > 30 µM | > 30 µM | > 30 µM | > 30 µM | > 30 µM | > 30 µM | > 30 µM | > 30 µM | > 30 µM | > 30 µM | > 30 µM | > 30 µM |
| COc1nccnc1NS(=O)(=O)c1ccc(N)cc1 | > 30 µM | > 30 µM | > 30 µM | > 30 µM | > 30 µM | > 30 µM | > 30 µM | > 30 µM | > 30 µM | > 30 µM | > 30 µM | > 30 µM | > 30 µM | > 30 µM | > 30 µM | > 30 µM | > 30 µM | > 30 µM | > 30 µM |
| CN(C)c1cc(CNCC(C)(C)C)c(O)c2c1C[C@H]1C[C@H]3[C@H](N(C)C)C(O)=C(C(N)=O)C(=O)[C@@]3(O)C(O)=C1C2=O [OMADACYCLINE] | > 30 µM | > 10 µM | > 30 µM | > 30 µM | > 30 µM | > 10 µM | 0.16 µM | > 30 µM | > 30 µM | > 30 µM | > 30 µM | > 30 µM | > 30 µM | > 30 µM | > 30 µM | 9.2 µM | > 30 µM | > 30 µM | 0.25 µM |
| Cc1ccc([C@@H]2O[C@H](CO)[C@@H](O)[C@H](O)[C@H]2O)cc1Cc1ccc(-c2ccc(F)cc2)s1 [CANAGLIFLOZIN ANHYDROUS] | > 30 µM | > 30 µM | > 30 µM | > 30 µM | > 30 µM | > 30 µM | > 30 µM | 3.54 µM | > 30 µM | > 30 µM | > 30 µM | > 30 µM | > 30 µM | > 30 µM | > 30 µM | > 30 µM | > 30 µM | > 30 µM | > 30 µM |
| CC(C)(C)C(=O)NCCCC(=O)O [PIVAGABINE] | > 30 µM | > 30 µM | > 30 µM | > 30 µM | > 30 µM | > 30 µM | > 30 µM | > 30 µM | > 30 µM | > 30 µM | > 30 µM | > 30 µM | > 30 µM | > 30 µM | > 30 µM | > 30 µM | > 30 µM | > 30 µM | > 30 µM |

— ChEMBL document CHEMBL5291721, “A preclinical secondary pharmacology resource illuminates target-adverse drug reaction associations of marketed drugs” (Nat Commun, 2023)
